Results: US8236824B2, “N-(pyrazole-3-yl)-benzamide derivatives as glucokinase activators” (Merck Patent Gesellschaft mit Beschränkter Haftung, priority 2007, dated 2012)

biological target: T1, glucokinase (GK), human enzyme (Homo sapiens, UniProt P35557); test: Glucokinase Activation Screening Assay (coupled enzyme assay with PK/LDH, NADH decline at 340 nm); format: biochemical; details: 2 mM glucose
T1 sequence (P35557 1-465): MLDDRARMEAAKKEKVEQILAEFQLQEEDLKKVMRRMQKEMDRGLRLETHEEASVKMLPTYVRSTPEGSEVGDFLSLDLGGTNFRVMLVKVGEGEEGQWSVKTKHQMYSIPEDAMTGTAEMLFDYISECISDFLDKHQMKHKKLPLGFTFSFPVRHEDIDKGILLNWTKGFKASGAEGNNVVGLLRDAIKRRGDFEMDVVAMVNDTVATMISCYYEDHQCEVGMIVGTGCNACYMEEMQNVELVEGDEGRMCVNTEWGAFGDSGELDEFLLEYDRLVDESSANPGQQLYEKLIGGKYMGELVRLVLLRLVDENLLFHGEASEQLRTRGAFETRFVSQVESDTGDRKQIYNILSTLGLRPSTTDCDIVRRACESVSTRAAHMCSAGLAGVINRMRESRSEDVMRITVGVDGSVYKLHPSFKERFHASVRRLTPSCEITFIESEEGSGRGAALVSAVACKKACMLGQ
Description: Glucokinase Activation Screening Assay
GK activity (human or rat enzyme) is measured by an coupled enzyme assay using pyruvate kinase (PK) and lactate dehydrogenase (LDH) as coupling enzymes. GK activity is calculated from the decline in NADH monitored photometrically with a microliter plate (MTP) reader at 340 nm. For screening purposes, the GK assay is routinely run in a 384-MTP format, in a total volume of 33 μl/well. 10 μl of the ATP-regeneration solution (in HEPES-buffer*, pH 7.0, 6.73 U/ml pyruvate kinase, 6.8 U/ml lactate dehydrogenase) and 10 μl of the glucokinase-/glucose solution (15 μg/ml, 6.6 mM glucose in HEPES-buffer*, pH 7.0; the concentration of the glucose stock-solution was 660 mM in Millipore H2O) were mixed together with 3 μl of a 10% DMSO solution (in HEPES-buffer*, pH 7.0) containing […] the amounts of the compounds to achieve final compound concentrations in the range between 1 nM to 30 μM (sometimes 300 μM) in the assay solution (s. below). The solutions were mixed for 5 sec, and after a centrifugation at 243×g for 5 min, the solutions were preincubated for 25 min at room temperature.
The reaction was started by the addition of 10 μl of the NADH-/ATP-solution (4.29 mM NADH, 4.95 mM ATP, in HEPES-buffer*). The MTP was shaken for 5 sec., and then, the absorbance at 340 nm was monitored continuously in a MTP-reader (TECAN Spectro fluor plus) for the next 27 min (with a MTP-cycling time of 199 sec.). The final concentrations of the various components were as follows: 49.5 mM Hepes, pH 7.0, 1.49 mM PEP, 1.3 mM NADH, 49.5 mM KCl, 4.96 mM MgCl2, 1.5 mM Mg-ATP, 1.98 mM DTT, 2.04 U/ml pyruvate kinase, 2.06 U/milactate-dehydrogenase, 0.91% DMSO, 0.15 μg/well glucokinase, and test compounds in the range between 1 nM and 300 μM.
The change in the optical density (ΔOD340 nm) in the presence of the compound was expressed relative to the ΔOD340 nm, ctrl of the control incubation (in the presence of 2 mM glucose and 0.91% DMSO), taking into account the optical density of the blank sample (incubation in the absence of 2 mM glucose). For the determination of the half maximal effective concentration (EC50), the %-Ctrl-values were plotted in a semi-logarithmic graph against the conc. of the compound of interest. The data points were fitted to a sigmoid curve function (f(x)=((%-Ctrlmax-%-Ctrlmin)/(1−(EC50/x**^n(Hill)))%-Ctrlmin)) by a non-linear regression analysis. • Hepes-buffer (50 mM Hepes, pH 7.0, 5 mM MgCl2, 50 mM KCl, 1.5 mM PEP, 0.1% BSA). DTT was added to the Hepes-buffer from a 200× stock solution (in Millipore H2O) freshly each day. The final concentration of DTT in the Hepes-buffer is 2 mM. Culture of Pancreatic INS-1 Cells

EC50 [nM] | SMILES
10 to 1000 | COC[C@H](C)Oc1cc(O[C@@H](C)Cc2ccccc2)cc(C(=O)Nc2ccn(Cc3ccccc3)n2)c1 [A4]
10 to 1000 | COC[C@H](C)Oc1cc(O[C@@H](C)Cc2ccccc2)cc(C(=O)Nc2ccn(Cc3cccnc3)n2)c1 [A7, 3-((S)-2-methoxy-1-methyl-ethoxy)-5-((S)-1-methyl-2-phenyl-ethoxy)-N-(1-pyridine-3-ylmethyl-1H-pyrazole-3-yl)-benzamide]
1000 to 10000 | Cc1cc(NC(=O)c2cc(OCc3ccccc3)cc(OC(C)C)c2)nn1Cc1ccccn1 [A2, 3-Benzyloxy-5-isopropoxy-N-(5-methyl-1-pyridine-2-ylmethyl-1H-pyrazole-3-yl)-benzamide]
10 to 1000 | CC(C)Oc1cc(OCc2ccccc2)cc(C(=O)Nc2ccn(Cc3ccccc3)n2)c1 [A3, 3-Benzyloxy-N-(1-benzyl-1H-pyrazol-3-yl)-5-isopropoxy-benzamide]
10 to 1000 | COC[C@H](C)Oc1cc(Oc2ccc(S(C)(=O)=O)cc2)cc(C(=O)Nc2ccn(Cc3cccnc3)n2)c1 [A10]
1000 to 10000 | CC(C)Oc1cc(OCc2ccccc2)cc(C(=O)Nc2ccn(Cc3ccccn3)n2)c1 [A1, 3-Benzyloxy-5-isopropoxy-N-(1-pyridine-2-ylmethyl-1H-pyrazol-3-yl)-benzamide]
10 to 1000 | CC(C)Oc1cc(OCCc2ccsc2)cc(C(=O)Nc2ccn(Cc3ccccn3)n2)c1 [A6, 3-isopropoxy-N-(1-pyridine-2-ylmethyl-1H-pyrazole-3-yl)-5-(2-thiophene-3-yl-ethoxy)-benzamide]
10 to 1000 | COC[C@H](C)Oc1cc(O[C@@H](C)Cc2ccccc2)cc(C(=O)Nc2ccn(Cc3ccncc3)n2)c1 [A8, 3-((S)-2-methoxy-1-methyl-ethoxy)-5-((S)-1-methyl-2-phenyl-ethoxy)-N-(1-pyridine-4-ylmethyl-1H-pyrazole-3-yl)-benzamide]
10 to 1000 | CC(C)Oc1cc(OCCc2ccsc2)cc(C(=O)Nc2ccn(Cc3ccccc3)n2)c1 [A9, N-(1-Benzyl-1H-pyrazol-3-yl)-3-isopropoxy-5-(2-thiophen-3-yl-ethoxy)-benzamide]
10 to 1000 | COC[C@H](C)Oc1cc(O[C@@H](C)Cc2ccccc2)cc(C(=O)Nc2ccn(Cc3ccccn3)n2)c1 [A5, 3-((S)-2-Methoxy-1-methyl-ethoxy)-5-((S)-1-methyl-2-phenyl-ethoxy)-N-(1-pyridine-2-ylmethyl-1H-pyrazole-3-yl)-benzamide]
